Test results as given in patent publication US9133437B2, “Cell proliferation-promoting peptide and use thereof” (TOAGOSEI CO. LTD., priority 2009, dated 2015).
Where no end group is shown, it is not given here.

Test system: Rat bone marrow stem cells (mesenchymal stem cells)
Assay: Cell proliferation-promoting activity, WST-8 colorimetry (OD450)
Format: cell-based
Conditions: WST-8, 2 hours; for OD450 day 4: four days from start of incubation; for OD450 day 4 / OD450 day 2: bFGF at 10 ng/mL; for OD450 Start: start of the incubation (day 0), 1×10^3 cells per well; for OD450 day 2: two days from start of incubation
Protocol: The cell proliferation-promoting peptides (Samples 1 to 8) obtained in Example 1 and the peptides composed of only a (A) part sequence (Samples 9 to 11) which had been prepared for comparison were evaluated, respectively, on the cell proliferation-promoting activity. Sample 12 was an experimental control where a commercial bFGF was used as the cell proliferation promoter. Sample 13 was an experimental control where no peptide was added (bFGF was not added, either). The evaluation assay is described in detail below. Each synthesized peptide sample was dissolved in PBS (phosphate buffered saline) to prepare a stock solution having a peptide concentration of 1 mM.
Rat bone marrow stem cells (mesenchymal stem cells) were used as the test cells. In particular, the test stem cells were subcultured in Dulbecco MEM (DMEM: a Gibco product) containing 10% fetal bovine serum (FBS: a Gibco product), 2 mM of L-glutamine, 50 unit/mL of penicillin, and 50 μg/mL of streptomycin. Passage 2 cells were used for the evaluation.
The test stem cells that had been pre-incubated overnight in the DMEM containing 10 ng/mL of bFGF were collected and seeded at 1×10^3 cells per well in a 96-well plate. The amount of the culture medium was […] per well.
Then, the stock solutions containing respective peptides of Samples 1 to 11 were added to some wells, one for each well. For comparison, a commercial bFGF (a PeproTech product) was added at a concentration of 10 ng/mL to some other wells (Sample 12). Similarly, yet some other wells were set up to not to contain any of the sample peptides or bFGF (Sample 13).
After a sample peptide or bFGF was added as described above, the 96-well plate was placed in a CO2 incubator and incubated standing at 37° C. and 5% CO2. Exchange of the culture medium was carried out every other day. The culture medium used for an exchange was the same as the culture medium used initially for the incubation (i.e., for the group containing a sample peptide or bFGF, the same sample peptide or bFGF was added to the exchanged culture medium).
During the course of this incubation assay, water-soluble tetrazolium salt (WST-8) was added to some wells as a staining reagent at the start of the incubation (day 0), when two days had passed from the start (day 2) and when four days had passed from the start (day 4). Incubated for 2 hours after the addition, the cell culture medium with the added staining reagent was collected. The level of cell proliferation was evaluated by colorimetry as optical density measured at 450 nm (OD450) based on reduction of the tetrazolium salt.

Substance	OD450 day 4	OD450 Start	OD450 day 2
KKRTLRKNDRKKR LLGNSSPRTQSPQNC (KKRTLRKNDRKKRLLGNSSPRTQSPQNC-NH2) [Sample 3]	2.289	0.124	1.177
TLDGGDIINALCFS KKRTLRKNDRKKR (TLDGGDIINALCFSKKRTLRKNDRKKR-NH2) [Sample 2]	2.259	0.124	1.133
YGRKKRRQRRRTLKERCLQVVRSLVK (YGRKKRRQRRRTLKERCLQVVRSLVK-NH2) [Sample 7]	2.279	0.124	1.340
WRRQARFK [Sample 11, reference compound]	1.744	0.124	0.799
YARAAARQARA SLQYLCRFVIRQYTR (YARAAARQARASLQYLCRFVIRQYTR-NH2) [Sample 8]	1.828	0.124	0.856
TLKERCLQVVRSLVK KKRTLRKNDRKKR (TLKERCLQVVRSLVKKKRTLRKNDRKKR) [Sample 1]	2.369	0.124	1.264
Sample 12: experimental control: commercial bFGF (basic fibroblast growth factor, a PeproTech product) at 10 ng/mL	1.977	0.124	1.022
YARAAARQARA (YARAAARQARA-NH2) [Sample 10, reference compound]	1.737	0.124	0.770
KKRTLRKNDRKKR TLKERCLQVVRSLVK (KKRTLRKNDRKKRTLKERCLQVVRSLVK) [Sample 4]	2.410	0.124	1.357
KKRTLRKNDRKKR (KKRTLRKNDRKKR-NH2) [Sample 9, reference compound]	1.260	0.124	0.648
WRRQARFK TLKERCLQVVRSLVK (WRRQARFKTLKERCLQVVRSLVK) [Sample 6]	2.365	0.124	1.181
YARAAARQARA TLKERCLQVVRSLVK (YARAAARQARATLKERCLQVVRSLVK) [Sample 5]	1.971	0.124	0.926
